Results: US20080226596A1, “Therapeutic compositions and methods useful in treating hepatitis” (priority 2006, published 2008)
Values joined by “and” are separate entries in the source; they are usually repeats but may differ in a detail not shown here. Equal values may be shown once.

Columns and labels:
NB4 cells [1] = experiment: NB4 cell cycle analysis; type: cell-based, human; settings: 3 days; sodium stibogluconate 250 μg/ml, ATRA 1 μM
Experimental: The cell cycle was analyzed by flow cytometry after 3 days of culture of NB4 cells in the absence or presence of sodium stibogluconate (250 µg/ml) or ATRA (1 μM). Briefly, the cells were fixed in cold ethanol and incubated for 30 minutes at 4° C. in the dark with a solution of 50 […], 1 mg/ml RNase and 0.1% NP-40. Analysis was performed immediately after staining using the CELLFIT program (Becton Dickinson, Mountain View, Calif.).

U937 cells = experiment: U937 differentiation, NBT reduction; type: cell-based, human; settings: day 6; sodium stibogluconate 400 μg/ml, GM-CSF 25 ng/ml
Experimental: (§1) Differentiation of AML cell lines was assessed by their ability to produce superoxide as measured by reduction of NBT to formazan and by analysis of expression of CD11b surface marker by flow cytometry. For NBT reduction, each cell suspension was mixed with an equal volume of solution containing 1 mg/ml of NBT (Sigma) and 2.5 µg/ml of TPA for 30 minutes at 37° C. After incubation, cells containing the purple formazan deposits and cells devoid of NBT-reducing activity (white cells) in each sample were determined by counting 200 cells under microscope. Data is expressed as a percentage based on the following ratio: purple cells/purple+white cells. For analysis of cell surface antigens, cells were exposed to phycoerythrin (PE)-conjugated murine anti-human CD11b (DAKO Corp., Carpinteria, Calif.). Analysis of fluorescence was performed on a FACScan flow cytometer (Beckton Dickinson, Mountain View, Calif.).

HL-60 cells = experiment: HL-60 differentiation, NBT reduction; type: cell-based, human; settings: day 6; sodium stibogluconate 400 μg/ml, GM-CSF 25 ng/ml
Experimental: as §1

PRL-3 = biological target: T1, PRL-3 (Homo sapiens, UniProt O75365); experiment: In vitro PTPase assay, recombinant PRL-3, DiFMUP substrate; type: biochemical; settings: comparable conditions
T1 construct: GST (N); made in house; host or cells: DHSa (DH5a) bacteria
T1 sequence (O75365 whole entry): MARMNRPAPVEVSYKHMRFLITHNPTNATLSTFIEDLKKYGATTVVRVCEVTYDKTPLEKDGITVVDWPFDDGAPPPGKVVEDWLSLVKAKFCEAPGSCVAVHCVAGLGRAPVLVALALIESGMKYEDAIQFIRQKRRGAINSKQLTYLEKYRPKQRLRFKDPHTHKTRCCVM
Experimental: (§2) In vitro PTPase assays were used to determine the effects of compounds on recombinant PTPases, following established procedures using a synthetic phosphotyrosine peptide or DiFMUP as the substrate (Pathak et al., J. Imumol. 167, 3391 (2001)). Briefly, individual PTPases (0.1 µg/reaction) in 50 μL of PTPase buffer (50 mM Tris, pH 7.4) were incubated at 22° C. for 10 minutes or as indicated in the absence or presence of inhibitory compounds. Substrates (0.2 mM phosphotyrosine peptide) were then added and allowed to react at 22° C. for 18 hrs. PTPase activity of individual reactions was measured by adding 100 µL of malachite green solution (UBI) and then quantifying the amounts of free phosphate cleaved by the PTPase from the peptide substrate by spectrometry (OD660 nm). PTPase assays using DiFMUP as a substrate were conducted following a previously described procedure (Matter, et al., Biochem. Biophys. Res. Comm. 283, 1061 (2001)). Relative PTPase activities were calculated based on the formula: (PTPase activity in the presence of an inhibitory compound/PTPase activity in the absence of the compound)× 100%. To assess the reversibility of PTPase inhibition, GST fusion proteins of the PTPases bound on glutathione beads (Pharmacia) were pre-incubated with cold Tris buffer (50 mM Tris, pH 7.0) or Tris buffer containing the inhibitor at 4° C. for 30 minutes. The beads were then washed three times in cold Tris buffer or not washed prior to subjecting to in vitro PTPase assays.

GSTm8 = experiment: In vitro PTPase assay, GSTm8; type: biochemical; settings: 3-4 μg/ml or 10-100 μg/ml
Excerpt: (§3) In vitro PTPase assays were used to determine the effects of levamisole (Sigma), pentamidine (American Pharmaceutical Partners, Inc.), and ketoconazole (Sigma) on recombinant PTPases, following established procedures (Pathak et al., J. Imumol. 167, 3391 (2001); Pathak et al., Leukemia 16, 2285 (2002), Yi et al., J. Immunol. 169, 5978 (2002)) using a synthetic phosphotyrosine peptide or DiFMUP as the substrate as detailed above in section I.A.2.

SHP-1 [2] = biological target: T2, SHP-1 (Mus musculus, UniProt P29351); experiment: In vitro PTPase assay, recombinant GST/SHP-1; type: biochemical
T2 construct: made in house
T2 sequence (P29351 whole entry): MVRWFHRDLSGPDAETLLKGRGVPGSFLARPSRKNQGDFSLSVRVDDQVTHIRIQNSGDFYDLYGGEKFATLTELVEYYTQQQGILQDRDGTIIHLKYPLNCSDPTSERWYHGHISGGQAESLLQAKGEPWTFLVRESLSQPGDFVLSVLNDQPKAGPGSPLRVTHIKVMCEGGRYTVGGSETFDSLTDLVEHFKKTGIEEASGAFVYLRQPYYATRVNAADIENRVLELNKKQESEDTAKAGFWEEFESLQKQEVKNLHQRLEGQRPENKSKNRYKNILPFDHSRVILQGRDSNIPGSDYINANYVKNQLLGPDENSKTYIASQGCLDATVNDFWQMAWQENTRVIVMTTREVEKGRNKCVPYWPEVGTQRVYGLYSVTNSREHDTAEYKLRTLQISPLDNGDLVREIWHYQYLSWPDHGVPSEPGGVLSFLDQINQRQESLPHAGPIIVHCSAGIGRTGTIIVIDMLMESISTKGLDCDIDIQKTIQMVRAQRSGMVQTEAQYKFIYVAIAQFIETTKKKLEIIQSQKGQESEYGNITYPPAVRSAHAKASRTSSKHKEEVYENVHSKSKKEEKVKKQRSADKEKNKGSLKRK
Experimental: (§4) In vitro PTPase activities were measured using the commercial protein tyrosine phosphatase assay kit (Upstate Biotechnology, Inc. (“UBI”)) following established procedure known to one of skill in the art. This assay measures the in vitro dephosphorylation of a synthetic phosphotyrosine peptide of the sequence Arg-Arg-Leu-Ile-Glu-Asp-Ala-Gle-Tyr-Ala-Ala-Arg-Gly, wherein the tyrosine is phosphorylated (SEQ ID NO: 3). Briefly, 0.01 µg of GST/PTPase fusion proteins was incubated in 50 μL of Tris buffer (10 mM Tris, pH 7.4) containing different concentrations of inhibitors or chemicals (0-1,000 μg/ml) at 22° C. for 10 minutes, followed by addition of 0.2 mM of the phosphotyrosine peptide and incubation at 22° C. for 18 hours. 100 μL of Malachite Green solution was added and incubated for 5 minutes, and the absorbance at 660 nm was measured after 5 minutes.
as §2, §3

MKP1 = biological target: T3, MKP1 (Homo sapiens, UniProt P28562); experiment: In vitro PTPase assay, GST/MKP1; type: biochemical
T3 construct: GST (N); made in house; host or cells: DH5a bacteria
T3 sequence (P28562 1-367): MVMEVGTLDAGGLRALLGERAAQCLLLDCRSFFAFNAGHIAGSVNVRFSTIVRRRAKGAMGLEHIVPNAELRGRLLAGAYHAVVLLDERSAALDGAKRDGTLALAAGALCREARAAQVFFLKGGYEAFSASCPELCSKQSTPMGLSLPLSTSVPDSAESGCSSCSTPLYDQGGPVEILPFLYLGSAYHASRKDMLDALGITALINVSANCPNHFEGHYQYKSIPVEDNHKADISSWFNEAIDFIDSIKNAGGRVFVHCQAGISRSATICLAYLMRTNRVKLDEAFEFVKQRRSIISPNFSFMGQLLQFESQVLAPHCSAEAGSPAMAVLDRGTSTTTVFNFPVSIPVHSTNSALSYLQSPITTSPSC
Experimental: as §4, §3

[3] = system: Jak2/Stat5 tyrosine phosphorylation; experiment: IL-3-induced Jak2/Stat5 tyrosine phosphorylation in Baf3 cells; type: cell-based, murine; settings: potassium antimonyl tartrate
Experimental: For induction of cellular protein phosphorylation by sodium stibogluconate or pervanadate, Baf3 cells were incubated in 0.1% FCS-RPMI 1640 medium at 37° C. for 16 hours. The cells were then washed twice in RPMI 1640 medium and incubated with sodium stibogluconate or pervanandate (0.1 mM) for various times prior to termination by lysing cells in cold lysis buffer (50 mM Tris, pH 7.4; 150 mM NaCl; 0.2 mM Na3VO4; 20 mm NaF; 1% Nonidet P-40; 2 mM PMSF; 20 µg/ml of Aprotinin and 1 mM of sodium molybdic acid). To determine the effect of sodium stibogluconate or potassium antimonyl tartrate on IL-3-induced Jak/Stat phosphorylation, Baf3 cells were deprived of the growth factor for 16 hours in 0.1% FCS RPMI 1640 medium and then incubated with or without sodium stibogluconate or potassium antimonyl tartrate for 10 minutes. IL-3 was next added to the cell suspension and incubated for various times. The Cells were then harvested and lysed in cold lysis buffer at 4° C. for 45 minutes. Total cell lysates (TCL) were separated in SDS-PAGE gels, blotted onto nitrocellulose membrane (Schleicher & Schuell), probed with specific antibodies and detected using an enhanced chemiluminescence kit (ECL, Amersham, Arlington Heights, Ill.).

PTP1B = biological target: T4, PTP1B (Homo sapiens, UniProt P18031); experiment: In vitro PTPase assay, GST/PTP1B; type: biochemical; settings: 1-1,000 μg/ml
T4 construct: GST; purchased Upstate Biotechnology Inc. (Lake Placid, N.Y.)
T4 sequence (P18031 whole entry, species assumed): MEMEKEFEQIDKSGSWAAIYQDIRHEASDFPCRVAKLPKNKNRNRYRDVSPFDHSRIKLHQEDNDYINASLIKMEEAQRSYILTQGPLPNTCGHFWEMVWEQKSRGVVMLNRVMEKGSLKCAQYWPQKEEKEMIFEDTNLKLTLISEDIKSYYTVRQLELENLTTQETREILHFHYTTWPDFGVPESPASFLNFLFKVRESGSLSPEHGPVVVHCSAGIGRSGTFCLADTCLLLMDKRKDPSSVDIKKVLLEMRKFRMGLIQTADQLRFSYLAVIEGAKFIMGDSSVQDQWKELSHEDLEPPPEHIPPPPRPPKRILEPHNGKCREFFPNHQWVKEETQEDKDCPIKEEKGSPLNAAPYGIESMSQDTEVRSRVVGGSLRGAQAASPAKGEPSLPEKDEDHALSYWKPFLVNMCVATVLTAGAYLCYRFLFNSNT
Experimental: as §4, §3

Baf3 cells = experiment: Baf3 cell proliferation assay; type: cell-based, murine
Experimental: The murine hematopoietic cell line Baf3 was maintained in RPMI 1640 medium supplemented with 10% fetal calf serum (FCS) and murine IL-3 (20 units/ml) as described previously in Damen et al., J. Biol. Chem. 270, 23402 (1995). Human myeloid cell line TF-1 was maintained in RPMI 1640 supplemented with 10% FCS and 40 ng/ml of recombinant human GM-CSF as described previously in Thomassen et al., Clin. Immunol. 95, 85 (2000). For cell proliferation assays, cells were washed in 10% FCS medium twice, resuspended in 10% FCS medium, incubated at 37° C. for 16 hours, and then cultured at 37° C. in 10% FCS medium containing various amounts of cytokines, sodium stibogluconate, or potassium antimonyl tartrate for 3-6 days as indicated. The cell numbers in proliferation assays were determined by an MTT assay or by microscopic cell counting as indicated.

NB4 cells [4] = experiment: NB4 differentiation, NBT reduction; type: cell-based, human; settings: comparable conditions
Experimental: as §1

SHP-1 [5] = biological target: T2, SHP-1; experiment: Reversibility of SHP-1 inhibition (washing of bead-bound GST/SHP-1); type: biochemical; settings: pre-incubated 4° C. 30 minutes, washed 3 times
Excerpt: The beads were then either subjected to in vitro PTPase assays or washed 3 times in Tris buffer then subjected to in vitro PTPase assays.

## CC1=C(/C=C/C(C)=C/C=C/C(C)=C/C(=O)O)C(C)(C)CCC1 [ATRA, All-trans-retinoic acid]
NB4 cells [1]
  NB4 cell cycle effect: arrested at G1 phase
U937 cells
  NBT-positive (differentiated) U937 cells: 72% and 73%
HL-60 cells
  NBT-positive (differentiated) HL-60 cells: 90%

## [Na+].[Na+].[Na+].[O]=[V]([O-])([O-])[O-] [sodium orthovanadate]
PRL-3
  inhibition of PRL-3 with DiFMUP substrate: less effective than sodium stibogluconate

## c1ccc([C@H]2CN3CCSC3=N2)cc1 [levamisole]
GSTm8
  inhibitory activity against GSTm8: no obvious inhibitory activity
SHP-1 [2]; 3-4 μg/ml or 10-100 μg/ml
  inhibitory activity against SHP-1: no obvious inhibitory activity
MKP1
  inhibition of MKP1: substantial inhibition

## O.O.O.O=C([O-])[C@H]([O-])[C@@H]([O-])C(=O)[O-].O=C([O-])[C@H]([O-])[C@@H]([O-])C(=O)[O-].[K+].[K+].[Sb+3].[Sb+3] [potassium antimonyl tartrate]
SHP-1 [2]; 1-1,000 μg/ml
  inhibition of SHP-1: no detectable inhibition
[3]
  IL-3-induced Stat5 phosphorylation: failed to enhance IL-3-induced Stat5 phosphorylation
PTP1B
  inhibition of PTP1B: no detectable inhibition
Baf3 cells
  toxicity against Baf3 cells: marked toxicity against Baf3 cells
Baf3 cells; IL-3 10 units/ml, three days
  IL-3-induced proliferation of Baf3 cells: failed to enhance

## GM-CSF: recombinant human GM-CSF
NB4 cells [4]
  effect of GM-CSF on NB4 differentiation: no detectable effect
U937 cells
  NBT-positive (differentiated) U937 cells: 8-10%
HL-60 cells
  NBT-positive (differentiated) HL-60 cells: 8-10%

## Cc1ccc(C(=O)Nc2ccc(S(=O)(=O)O)c3cc(S(=O)(=O)O)cc(S(=O)(=O)O)c23)cc1NC(=O)c1cccc(NC(=O)Nc2cccc(C(=O)Nc3cc(C(=O)Nc4ccc(S(=O)(=O)O)c5cc(S(=O)(=O)O)cc(S(=O)(=O)O)c45)ccc3C)c2)c1 [Suramin]
SHP-1 [2]; under comparable conditions
  inhibition of SHP-1 compared with sodium stibogluconate: less effective
PRL-3
  inhibition of PRL-3 with DiFMUP substrate: less effective than sodium stibogluconate
SHP-1 [5]
  inhibition of GST/SHP-1 after washing: almost completely removed by the washing process
